Measured values from publication PMC7967551 (2021).

How the values were obtained:
[1] = tested on: Tel23 (DNA, G4) TAGGGTTAGGGTTAGGGTTAGGG; assay: UV melting at 295 nm; details: K+ 100 mM (KCl), Li+, LiCac 2.5 mM, pH 7.0, 5.51 µM G4, no stabilizing effect
[2] = tested on: Tel23 (DNA, G4) TAGGGTTAGGGTTAGGGTTAGGG; assay: absorbance titration; details: K+ (KCl 0.1 M stated for G4 melting), Li+; LiCac 2.5 mM, pH 7.0; no signal change; highest concentration not stated

SMILES | binding ([1]; 5.47 µM compound) | binding [2] | binding ([1]; 6.01 µM compound)
c1cc[n+]2c(c1)-c1cccc[n+]1CC2 | no | no | 
C[n+]1ccc(-c2cc[n+](C)cc2)cc1 |  | no | no
